Data published in patent US20100075907A1, “NEUROMEDIN U RECEPTOR AGONISTS AND USES THEREOF” (priority 2006, published 2010).
Non-standard residues stand in square brackets, D forms with d. Residues, ends and D or L forms follow the SMILES beside them. No end group written: not given here. *: point of attachment. Succinimide(1-Et,3-yl) = CCN1C(=O)CC(*)C1=O; hArg = N=C(N)NCCCC[C@H](N)C(=O)O

How the values were obtained:
mouse NMUR1-ATG = target: T1, mouse NMUR1-ATG (Mus musculus, UniProt O55040); assay: 125I-hNMU-25 binding assay, mouse R1-ATG; parameters: expressed in transfected cells; host or cells: HEK-293 FLP-In cells (pcDNA5); settings: for IC50: binding
T1 sequence (O55040 1-428): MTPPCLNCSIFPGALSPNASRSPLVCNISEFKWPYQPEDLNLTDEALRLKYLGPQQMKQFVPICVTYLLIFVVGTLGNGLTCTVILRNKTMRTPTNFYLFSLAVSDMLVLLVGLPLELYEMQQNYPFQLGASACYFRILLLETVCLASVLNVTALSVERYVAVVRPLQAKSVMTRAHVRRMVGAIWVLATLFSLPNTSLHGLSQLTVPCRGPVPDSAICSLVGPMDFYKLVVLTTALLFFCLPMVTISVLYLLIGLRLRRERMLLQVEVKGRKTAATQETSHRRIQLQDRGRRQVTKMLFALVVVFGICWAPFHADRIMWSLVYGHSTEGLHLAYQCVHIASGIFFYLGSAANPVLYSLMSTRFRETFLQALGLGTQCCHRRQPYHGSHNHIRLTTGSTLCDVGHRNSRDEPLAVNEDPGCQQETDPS
Procedure: (§1) Confluent cell monolayers expressing NMU receptors (the HEK cells described above) were harvested with phosphate buffered saline, collected by centrifugation, and resuspended in membrane buffer (50 mM TrisCl pH 7.4, 5 mM MgCl2, 1× Protease Inhibitor Cocktail, 10 μM phosphoramidon). After the cell pellet was homogenized, the solution was centrifuged at 18,000 rpm for 20 minutes at 4° C. The pellet was resuspended in membrane buffer to yield a final concentration of 0.5-5 μg/μL of membrane and stored at −80° C.
(§2) Experiments were performed in assay buffer (25 mM TrisCl, pH 7.4, 10 mM MgCl2, 2 mM EDTA, 1× Protease Inhibitor Cocktail, 100 μg/mL Bacitricin, 10 μM phosphoramidon) in 200 μL volumes in a 96-well format using 2-5 μg of membrane and 0.1 nM ^125I-hNMU-25 (about 12,000 cpm/well). For non-specific binding, 1 μM hNMU-25 was added. About 5 μL of peptides were added to measure antagonist activity, and the entire reaction was incubated at room temperature with shaking for 80 minutes. The reaction was terminated by rapid filtration through 0.3% poly-ethylenimine presoaked Millipore 96-well filter plates and washed with ice-cold buffer (5 mM TrisCl pH 7.4, 10 mM MgCl2, 2.5 mM EDTA, 0.04% Triton X-100). Plates were air-dried overnight at room temperature and recovered radioactivity was determined by standard scintillation counting. IC50 values were determined using GraphPad Prism software.
(§3) Concentration-response curves and radioligand-binding data were fitted using Prism (GraphPad Software). Results are summarized below in Tables 8 and 9.

hNMUR1 = target: T2, hNMUR1 (Homo sapiens, UniProt Q9HB89); assay: FLIPR calcium mobilization assay, human NMUR1; format: cell-based; parameters: expressed in transfected cells; host or cells: FLP-In CHO or HEK-293 FLP-In cells (pcDNA5); HEK-293/aeq17 lines (pIRES-puro) were also made; settings: functional data, human R1
T2 sequence (Q9HB89 1-426): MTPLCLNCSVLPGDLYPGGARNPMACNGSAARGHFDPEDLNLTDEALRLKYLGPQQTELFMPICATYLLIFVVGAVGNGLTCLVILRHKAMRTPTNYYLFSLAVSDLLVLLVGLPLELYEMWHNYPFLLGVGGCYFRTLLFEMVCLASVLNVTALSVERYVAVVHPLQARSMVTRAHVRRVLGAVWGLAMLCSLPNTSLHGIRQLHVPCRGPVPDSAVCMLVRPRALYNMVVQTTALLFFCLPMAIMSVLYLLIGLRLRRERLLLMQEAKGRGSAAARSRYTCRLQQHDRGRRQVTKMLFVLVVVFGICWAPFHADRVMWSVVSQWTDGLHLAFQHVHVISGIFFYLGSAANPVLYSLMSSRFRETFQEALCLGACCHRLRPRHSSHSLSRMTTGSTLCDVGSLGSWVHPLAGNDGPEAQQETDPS

Mouse NMUR1-CTG = target: T3, Mouse NMUR1-CTG (Mus musculus, UniProt O55040); assay: 125I-hNMU-25 binding assay, mouse R1-CTG; parameters: expressed in transfected cells; host or cells: HEK-293 FLP-In cells (pcDNA5); settings: for IC50: binding
T3 sequence (O55040 1-428): T1 sequence (O55040 1-428)
Procedure: as §1, §2, §3

rat NMUR1-TTG = target: T4, rat NMUR1-TTG (Rattus norvegicus, UniProt Q9JJI5); assay: FLIPR calcium mobilization assay, rat NMUR1-TTG; format: cell-based; parameters: expressed in transfected cells; host or cells: FLP-In CHO or HEK-293 FLP-In cells (pcDNA5); settings: functional data, rat R1-TTG
T4 sequence (Q9JJI5 1-425): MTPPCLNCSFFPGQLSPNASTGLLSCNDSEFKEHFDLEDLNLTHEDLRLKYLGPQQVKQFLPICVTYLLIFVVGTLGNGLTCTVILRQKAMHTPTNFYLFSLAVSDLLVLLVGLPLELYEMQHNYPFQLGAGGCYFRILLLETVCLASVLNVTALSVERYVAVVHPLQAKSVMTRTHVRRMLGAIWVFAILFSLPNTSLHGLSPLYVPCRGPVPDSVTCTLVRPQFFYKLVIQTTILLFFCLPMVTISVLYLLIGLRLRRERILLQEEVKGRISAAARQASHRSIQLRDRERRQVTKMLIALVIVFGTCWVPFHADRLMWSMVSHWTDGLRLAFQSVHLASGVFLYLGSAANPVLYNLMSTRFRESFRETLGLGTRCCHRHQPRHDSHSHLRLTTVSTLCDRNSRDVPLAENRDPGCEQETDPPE

NMUR1 and NMUR2 = assay: NMU receptor subtype selectivity (EC50 ratios human NMUR2/human NMUR1); format: cell-based; settings: NMUR1 vs NMUR2
Procedure: The present invention provides neuromedin U receptor agonist. The neuromedin U receptor agonist described herein act at NMU receptors, bind the NMU receptors, and stimulate NMU receptor activity. In one aspect, the neuromedin U receptor agonists are specific for one receptor subtype, wherein such specificity is defined as having an IC50 values that is less than about 200 nM in the corresponding NMUR1 or NMUR2 receptor binding assay. Selectivity is based upon functional activity or EC50 ratios at human NMUR2/human NMUR1 for NMUR1-selective peptides and at human NMUR1/human NMUR2 for NMUR2-selective peptides. Further, the selective neuromedin U receptor agonists described herein range from about 21 to 909-fold selective for NMUR1 and from about 2 to 200-fold selective for NMUR2. In another aspect, the neuromedin U receptor agonists are capable of binding and stimulating both the NMUR1 and NMUR2 receptors and have been derivatized to enable the neuromedin U receptor agonists to cross the blood-brain bather and interact with NMU receptors in the brain. The neuromedin U receptor agonists can be used therapeutically and as research tools.

| Compound | IC50 (mouse NMUR1-ATG) | IC50 (hNMUR1) | IC50 (Mouse NMUR1-CTG) | IC50 (rat NMUR1-TTG) | receptor subtype specificity (NMUR1 and NMUR2) | % inhibition of NMU-25 binding (mouse NMUR1-ATG) | % inhibition of NMU-25 binding (Mouse NMUR1-CTG) |
| --- | --- | --- | --- | --- | --- | --- | --- |
| H-FRVDEEFQSPFASQSRGYFLFRPRN-NH2 [hNMU-25, reference compound] | 0.4 nM | 0.2 nM | 0.15 nM | 1 nM | – | – | – |
| CC(C)C[C@H](NC(=O)[C@H](Cc1c[nH]c2ccccc12)NC(=O)[C@H](Cc1ccccc1)NC(=O)CNC(=O)[C@H](CCCNC(=N)N)NC(=O)[C@H](CO)NC(=O)[C@H](CCC(N)=O)NC(=O)[C@H](CO)NC(=O)[C@H](C)NC(=O)[C@H](Cc1ccccc1)NC(=O)[C@@H]1CCCN1C(=O)[C@H](CO)NC(=O)[C@H](CCC(N)=O)NC(=O)[C@H](Cc1ccccc1)NC(=O)[C@H](CCC(=O)O)NC(=O)[C@H](CCC(=O)O)NC(=O)[C@H](CC(=O)O)NC(=O)[C@@H](NC(=O)[C@H](CCCNC(=N)N)NC(=O)[C@@H](N)Cc1ccccc1)C(C)C)C(=O)N[C@@H](Cc1ccccc1)C(=O)N[C@@H](CCCNC(=N)N)C(=O)N[C@@H](C)C(=O)N[C@@H](CCCCNC(=N)N)C(=O)N[C@@H](CC(N)=O)C(N)=O [Agonist P] (H-FRVDEEFQSPFASQSRGFWLFRA[hArg]N-NH2; N-terminus assumed) | – | – | – | – | bispecific | – | – |
| CC(C)C[C@@H](NC(=O)[C@H](Cc1ccccc1)NC(=O)[C@H](Cc1ccc(O)cc1)NC(=O)CNC(=O)[C@H](CCCNC(=N)N)NC(=O)[C@H](CO)NC(=O)[C@H](CCC(N)=O)NC(=O)[C@H](CO)NC(=O)[C@H](C)NC(=O)[C@H](Cc1ccccc1)NC(=O)[C@@H]1CCCN1C(=O)[C@H](CO)NC(=O)[C@H](CCC(N)=O)NC(=O)[C@H](Cc1ccccc1)NC(=O)[C@H](CCC(=O)O)NC(=O)[C@H](CCC(=O)O)NC(=O)[C@H](CC(=O)O)NC(=O)[C@@H](NC(=O)[C@H](CCCNC(=N)N)NC(=O)[C@@H](N)Cc1ccccc1)C(C)C)C(=O)N[C@@H](Cc1c[nH]c2ccccc12)C(=O)N[C@@H](CCCNC(=N)N)C(=O)N1CCC[C@H]1C(=O)N[C@@H](CCCNC(=N)N)C(=O)N[C@@H](CC(N)=O)C(N)=O [Agonist H] (H-FRVDEEFQSPFASQSRGYF[dL]WRPRN-NH2; N-terminus assumed) | 66 nM | 1.25 nM | 25 nM | 153 nM | – | 77% | 83% |
| CCN1C(=O)CC(SC[C@H](NC(C)=O)C(=O)N[C@@H](Cc2ccccc2)C(=O)N[C@@H](CCCNC(=N)N)C(=O)N[C@H](C(=O)N[C@@H](CC(=O)O)C(=O)N[C@@H](CCC(=O)O)C(=O)N[C@@H](CCC(=O)O)C(=O)N[C@@H](Cc2ccccc2)C(=O)N[C@@H](CCC(N)=O)C(=O)N[C@@H](CO)C(=O)N2CCC[C@H]2C(=O)N[C@@H](Cc2ccccc2)C(=O)N[C@@H](C)C(=O)N[C@@H](CO)C(=O)N[C@@H](CCC(N)=O)C(=O)N[C@@H](CO)C(=O)N[C@@H](CCCNC(=N)N)C(=O)NCC(=O)N[C@@H](Cc2ccc(O)cc2)C(=O)N[C@@H](Cc2ccccc2)C(=O)N[C@H](C)C(=O)N[C@@H](Cc2c[nH]c3ccccc23)C(=O)N[C@@H](CCCNC(=N)N)C(=O)N2CCC[C@H]2C(=O)N[C@@H](CCCNC(=N)N)C(=O)N[C@@H](CC(N)=O)C(N)=O)C(C)C)C1=O (stereo partly drawn) [NMU13] (Ac-C(Succinimide(1-Et,3-yl))FRVDEEFQSPFASQSRGYF[dA]WRPRN-NH2) | – | – | – | – | – | 100% | 100% |
| CC(C)C[C@H](NC(=O)[C@H](Cc1c[nH]c2ccccc12)NC(=O)[C@H](Cc1ccccc1)NC(=O)CNC(=O)[C@H](CCCNC(=N)N)NC(=O)[C@H](CO)NC(=O)[C@H](CCC(N)=O)NC(=O)[C@H](CO)NC(=O)[C@H](C)NC(=O)[C@H](Cc1ccccc1)NC(=O)[C@@H]1CCCN1C(=O)[C@H](CO)NC(=O)[C@H](CCC(N)=O)NC(=O)[C@H](Cc1ccccc1)NC(=O)[C@H](CCC(=O)O)NC(=O)[C@H](CCC(=O)O)NC(=O)[C@H](CC(=O)O)NC(=O)[C@@H](NC(=O)[C@H](CCCNC(=N)N)NC(=O)[C@@H](N)Cc1ccccc1)C(C)C)C(=O)N[C@@H](Cc1ccccc1)C(=O)N[C@@H](CCCNC(=N)N)C(=O)N1CCC[C@H]1C(=O)N[C@@H](CCCCNC(=N)N)C(=O)N[C@@H](CC(N)=O)C(N)=O [Agonist O] (H-FRVDEEFQSPFASQSRGFWLFRP[hArg]N-NH2; N-terminus assumed) | – | – | – | – | bispecific | – | – |
| FALFRPRN-NH2 [Agonist N] | – | – | – | – | bispecific | – | – |
